The values below come from EP4800015A1, “AZABICYCLO DERIVATIVE AND PREPARATION METHOD THEREFOR, AND USE” (Zhejiang Hisun Pharmaceutical Co., Ltd., priority 2023, dated 2025).

Data set [1] relates to RL95-2 cells. As to the kind of experiment: Inhibition of RL95-2 cell proliferation (CellTiter-Glo). Format: cell-based. Conditions: Homo sapiens; RL95-2 cells (MSI-H), 120 hours. In short, it runs like this: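 Proliferation IC50 derived by nonlinear regression of % inhibition against log concentration, with 0.1% DMSO wells as reference. CellTiter-Glo luminescence was read after 120 h of compound exposure (10000 nM down to 1.52 nM final) at 37 °C. MSI-H RL95-2 cells seeded at 500/well in DMEM/F12 with 10% FBS the day before.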

A short description of data set [2]: Pharmacokinetic test in mice after intragastric administration. Format: in vivo. Conditions: male, mouse, plasma, ICR mice, Oral (10 mg/kg); for AUC(0-t): read-out: Area under curve AUC0-t; for half-life: read-out: Half-life T1/2 (converted); for Cmax: read-out: Plasma concentration Cmax. The procedure: ICR mice were used as test animals, the plasma concentrations of the control compound HRO761 and the compounds of the present disclosure at different time points after intragastric administration were determined by LC/MS/MS method, and the pharmacokinetic characteristics of the compounds of the present disclosure in mice were studied.
ICR mice, male, 30.8 to 38.0 g, purchased from Vital River Laboratory Animal Technology Co., Ltd.
An appropriate amount of the test compound was weighed, and an appropriate amount of DMA (N,N-dimethylacetamide), 30% Solutol HS15 (30% polyethylene glycol-15 hydroxystearate), and Saline (saline) were added sequentially, the mixture was ultrasonicated and vortex mixed to prepare a 1 mg/mL dosing formulation. The ratio of DMA:30% Solutol HS15:Saline was 5:5:90 (v/v/v).
After overnight fasting, ICR mice in each test compound injection group (9 mice per group) were administered intragastrically (PO, compound dose was 10 mg/kg, administration volume was 10 mL/kg), and food was given 4 hours after administration.
About 0.1 mL of blood was collected via the orbital cavity before administration and at 0.25 h, 0.5 h, 1 h, 2 h, 4 h, 8 h, 10 h, and 24 h after administration, and whole blood samples were placed in anticoagulant tubes containing EDTA-K2. The samples were placed on ice after collection, and plasma was separated by centrifugation (centrifugation conditions: 1500 g, 10 minutes). The collected plasma was stored at -40 to -20 °C before analysis.
The content of the test compound in mouse plasma after intragastric administration was determined by LC-MS/MS.

Data set [3] concerns the target T1, recombinant human WRN (Homo sapiens, UniProt Q14191).
T1 construct: purchased BPS 101264
Description: Inhibition of WRN enzyme activity (ATPase), ADP-Glo Kinase Assay. Format: biochemical. The conditions noted are these: WRN protein 5 nM, Flap 0.1 nM, ATP 30 µM; read-out: IC50. In short, it runs like this:
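ATPase activity was measured by ADP-Glo luminescence after a 10-min room-temperature reaction with 30 µM ATP and 0.1 nM Flap26 oligonucleotide substrate. The 5 nM WRN had first been exposed to compound (0.004–1000 nM) for 15 min in pH 7.5 Tris buffer with 2 mM MgCl2. IC50 values came from log-concentration regression against the DMSO control.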

The subject of data set [4] is SW48 cells. Description: Inhibition of SW48 cell proliferation (CellTiter-Glo). The conditions noted are these: Homo sapiens; SW48 cells (MSI-H), 120 hours. Format: cell-based. In short, it runs like this: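 SW48 (MSI-H) cells in L-15 with 10% FBS were seeded at 500 per well, cultured overnight at 37 °C, then exposed to compound at final concentrations of 10000 nM to 1.52 nM for 120 h. Viability was read by CellTiter-Glo luminescence, with inhibition relative to 0.1% DMSO. IC50 from nonlinear regression of log concentration versus inhibition.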
Background: ATP-based viability assays read luminescence as a measure of living cells.

Data set [5] deals with Caco-2 monolayer cell model. Description: Caco-2 bidirectional permeability and efflux ratio. Format: in vitro ADME. The conditions noted are these: Caco-2, conclusion. The procedure:
(§1) The bidirectional permeability and efflux ratio of the example compounds and control compound were determined in a Caco-2 monolayer cell model.
(§2) Caco-2 cells (cultured at Shanghai Medicilon Inc.) were recovered in the experiment. After the cells were in good condition, they were digested, and the cell density was adjusted (1 × 10^5 cells/cm^2). Caco-2 cells were seeded into Transwell chambers and placed in 24-well plates for cultivation. After continuous cultivation for about 21 days, TEER values were measured one day before the experiment to ensure formation of a confluent cell monolayer for transport experiments (TEER > 200 Ω·cm^2). Test compounds were diluted from 10 mM stock solutions to 10 µM concentration using transport buffer (HBSS containing BSA) (metoprolol and atenolol were set as positive compounds). For efflux determination, 0.6 mL of compound dilution solution was added to the outer well (side B), and 0.4 mL of blank transport buffer was added to the Transwell chamber. For absorption determination, 0.4 mL of transport buffer containing compound was added to the Transwell chamber, and 0.6 mL of blank transport buffer was added to the outer side. After setup, the 24-well plates were cultivated at 37 °C and 5% CO2 with 95% relative humidity for 120 minutes, and permeability of test compounds from A to B direction or B to A direction was measured, respectively, with two duplicate wells set for each direction. Liquid in Transwell chambers and 24-well plates was collected separately, 60 µL each, and 180 µL of acetonitrile (containing internal standard) was added, vortexed for 1 min, then centrifuged at 4 °C, 10000 rpm for 10 min. The supernatant was taken, filtered through a 0.22 µm membrane, and placed in vials for testing. The content of the compounds in each Transwell chamber and 24-well plate was determined by liquid chromatography-tandem mass spectrometry (LC-MS/MS). Table 4 Permeability data of compounds of the present disclosure

Data set [6] in a line: Caco-2 bidirectional permeability and efflux ratio. Format: in vitro ADME. Conditions: human, Caco-2, 10 µM, 120 minutes. On the procedure:
as §1, §2
A general note: Passage across Caco-2 layers is used to estimate intestinal permeability.

T1 sequence (Q14191 whole entry): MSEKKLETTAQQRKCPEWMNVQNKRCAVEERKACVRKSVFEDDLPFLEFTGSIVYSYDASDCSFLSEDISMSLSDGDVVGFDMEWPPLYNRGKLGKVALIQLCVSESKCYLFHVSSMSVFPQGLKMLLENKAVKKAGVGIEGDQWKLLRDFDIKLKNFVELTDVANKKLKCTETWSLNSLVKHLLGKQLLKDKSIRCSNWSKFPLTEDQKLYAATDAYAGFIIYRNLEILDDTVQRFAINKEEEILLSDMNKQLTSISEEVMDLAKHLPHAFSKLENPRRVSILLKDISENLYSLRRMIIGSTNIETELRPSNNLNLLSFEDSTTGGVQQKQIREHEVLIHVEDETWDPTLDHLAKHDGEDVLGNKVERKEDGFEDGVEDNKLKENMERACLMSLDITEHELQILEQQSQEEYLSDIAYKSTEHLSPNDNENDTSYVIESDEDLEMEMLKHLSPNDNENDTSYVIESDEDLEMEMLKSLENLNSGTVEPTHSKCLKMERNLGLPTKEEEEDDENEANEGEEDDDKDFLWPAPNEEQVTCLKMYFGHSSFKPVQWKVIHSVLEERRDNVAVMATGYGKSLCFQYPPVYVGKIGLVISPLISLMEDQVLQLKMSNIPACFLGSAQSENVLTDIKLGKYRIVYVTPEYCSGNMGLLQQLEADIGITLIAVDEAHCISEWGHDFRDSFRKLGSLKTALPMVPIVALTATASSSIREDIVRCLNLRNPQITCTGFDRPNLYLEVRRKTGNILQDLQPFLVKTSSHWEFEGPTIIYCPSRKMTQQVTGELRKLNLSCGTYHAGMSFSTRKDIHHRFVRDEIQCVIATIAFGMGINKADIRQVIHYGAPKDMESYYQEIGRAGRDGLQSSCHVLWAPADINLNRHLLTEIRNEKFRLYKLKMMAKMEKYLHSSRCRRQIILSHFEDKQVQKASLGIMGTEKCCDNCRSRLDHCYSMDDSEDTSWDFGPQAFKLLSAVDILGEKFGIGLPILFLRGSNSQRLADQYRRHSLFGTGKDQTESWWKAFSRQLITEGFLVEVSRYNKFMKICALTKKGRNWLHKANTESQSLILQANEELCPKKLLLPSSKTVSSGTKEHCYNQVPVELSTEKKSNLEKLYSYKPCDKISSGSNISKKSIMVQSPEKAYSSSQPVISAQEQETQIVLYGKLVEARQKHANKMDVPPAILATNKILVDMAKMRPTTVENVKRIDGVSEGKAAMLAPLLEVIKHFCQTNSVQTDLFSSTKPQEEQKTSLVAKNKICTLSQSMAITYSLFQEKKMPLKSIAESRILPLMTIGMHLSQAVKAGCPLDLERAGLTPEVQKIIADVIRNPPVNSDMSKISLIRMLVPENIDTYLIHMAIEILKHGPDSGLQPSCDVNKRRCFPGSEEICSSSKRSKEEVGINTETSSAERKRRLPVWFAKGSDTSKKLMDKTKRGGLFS

In the case of `CCc1c(N2CCN(C(=O)c3ncnc(C)c3O)CC2)c(=O)n2nc(-c3ccc4c(ccn4C)c3)nc2n1CC(=O)Nc1ccc(C(F)(F)F)cc1Cl` [Example 103, N-(2-chloro-4-(trifluoromethyl)phenyl)-2-(5-ethyl-6-(4-(5-hydroxy-6-methylpyrimidine-4-carbonyl)piperazin-1-yl)-2-(1-methyl-1H-indol-5-yl)-7-oxo-[1,2,4]triazolo[1,5-a]pyrimidin-4(7H)-yl)ac etamide], the IC50 in data set [1] was 1 to 100 nM. In data set [2], the AUC(0-t) worked out at 24300 ng·h/mL, the half-life was 2.75 h and the Cmax was 7120 ng/mL. For the same compound, the IC50 in data set [3] lay in the range of 1 to 100 nM. In data set [4], this compound gave an IC50 of 1 to 100 nM.
In the case of `CCc1c(N2CCN(C(=O)c3ncnc(C)c3O)CC2)c(=O)n2nc(-c3ccc4occc4c3)nc2n1CC(=O)Nc1ccc(S(F)(F)(F)(F)F)cc1` [Example 97, 2-(2-(benzofuran-5-yl)-5-ethyl-6-(4-(5-hydroxy-6-methylpyrimidine-4-carbonyl)piperazin-1-yl)-7-oxo-[1,2,4]triazolo[1,5-a]pyrimidin-4(7H)-yl)-N-(4-(pentafluoro-λ^6-sulfaneyl)phenyl)acetamide], in data set [1], the half-maximal inhibitory concentration (IC50) lay in the range of 1 to 100 nM. In addition, in data set [2], the AUC(0-t) amounted to 28500 ng·h/mL, the half-life was 2.3 h and the Cmax amounted to 9920 ng/mL. Moreover, the IC50 in data set [3] lay within 1 to 100 nM. Besides, the 50% inhibitory concentration (IC50) in data set [4] is 1 to 100 nM.
With `CCc1c(N2CCN(C(=O)c3ncnc(C)c3O)CC2)c(=O)n2nc(C3=CCCCCC3)nc2n1CC(=O)Nc1ccc(C(F)(F)F)cc1Cl` [Example 6, N-(2-chloro-4-(trifluoromethyl)phenyl)-2-(2-(cyclohept-1-en-1-yl)-5-ethyl-6-(4-(5-hydroxy-6-methylpyrimidine-4-carbonyl)piperazin-1-yl)-7-oxo-[1,2,4]triazolo[1,5-a]pyrimidin-4(7H)-yl)acetamide], the values for the IC50 in data set [1], in data set [3] and in data set [4] were 1 to 100 nM, less than 1 nM and 1 to 100 nM, respectively. In addition, in data set [2], the AUC(0-t) turned out to be 39700 ng·h/mL. In data set [2], the half-life is 1.26 h. Besides, the Cmax in data set [2] amounted to 15900 ng/mL.
The compound `CCc1c(N2CCN(C(=O)c3ncnc(C)c3O)CC2)c(=O)n2nc(-c3ccc4ccoc4c3)nc2n1CC(=O)Nc1ccc(C(F)(F)F)cc1Cl` [Example 68, 2-(2-(benzofuran-6-yl)-5-ethyl-6-(4-(5-hydroxy-6-methylpyrimidine-4-carbonyl)piperazin-1-yl)-7-oxo-[1,2,4]triazolo[1,5-a]pyrimidin-4(7H)-yl)-N-(2-chloro-4-(trifluoromethyl)phenyl)acetamide] came in with an IC50 in data set [1] of 1 to 100 nM. Further, in data set [2], the AUC(0-t) came to 98900 ng·h/mL, the half-life is 2.41 h and the Cmax was determined as 17300 ng/mL. Further, the IC50 in data set [3] is less than 1 nM. In addition, in data set [5], the “efflux (in words)” value was “no significant efflux” and the “permeability (in words)” value is on record as “moderate permeability”. Further, the efflux ratio at 120 min, 10 µM in data set [6] (read-out: Efflux ratio Papp(B-A)/ Papp(A-B)) was 1.1. Moreover, the Papp A→B at 120 min, 10 µM in data set [6] (A to B) came out at 4.64 ×10⁻⁶ cm/s. Besides, the Papp B→A at 120 min, 10 µM in data set [6] (B to A) came to 5.09 ×10⁻⁶ cm/s.
As for `Cc1ncnc(C(=O)N2CCN(c3c(C)n(CC(=O)Nc4ccc(C(F)(F)F)cc4Cl)c4nc(-c5ccc6c(c5)CCO6)nn4c3=O)CC2)c1O` [Example 106, N-(2-chloro-4-(trifluoromethyl)phenyl)-2-(2-(2,3-dihydrobenzofuran-5-yl)-6-(4-(5-hydroxy-6-methylpyrimidine-4-carbonyl)piperazin-1-yl)-5-methyl-7-oxo-[1,2,4]triazolo[1,5-a]pyrimidin-4(7H) -yl)acetamide], in data set [1], the IC50 was in the range of 1 to 100 nM. In data set [2], the AUC(0-t) worked out at 330000 ng·h/mL, the half-life was 4.85 h and the Cmax came out at 45000 ng/mL. Further, the IC50 in data set [3] is 1 to 100 nM. In data set [4], this compound showed an IC50 of 1 to 100 nM.
Regarding `CCc1c(N2CCN(C(=O)c3ncnc(C)c3O)CC2)c(=O)n2nc(C3=CCCCCC3)nc2n1CC(=O)Nc1ccc(S(F)(F)(F)(F)F)cc1` [Example 27, 2-(2-(cyclohept-1-en-1-yl)-5-ethyl-6-(4-(5-hydroxy-6-methylpyrimidine-4-carbonyl)piperazin-1-yl)-7-oxo-[1,2,4]triazolo[1,5-a]pyrimidin-4(7H)-yl)-N-(4-(pentafluoro-λ^66-sulfaneyl)phenyl)acet amide], the IC50 in data set [1], in data set [3] and in data set [4] was 1 to 100 nM each time. The AUC(0-t) in data set [2] came to 66600 ng·h/mL. Also, the half-life in data set [2] is 2.27 h. In addition, the Cmax in data set [2] came out at 18100 ng/mL.
In the case of `[2H]C([2H])([2H])n1ccc2cc(-c3nc4n(CC(=O)Nc5ccc(C(F)(F)F)cc5Cl)c(CC)c(N5CCN(C(=O)c6ncnc(C)c6O)CC5)c(=O)n4n3)ccc21` [Example 185, N-(2-chloro-4-(trifluoromethyl)phenyl)-2-(5-ethyl-6-(4-(5-hydroxy-6-methylpyrimidine-4-carbonyl)piperazin-1-yl)-2-(1-(methyl-d3)-1H-indol-5-yl)-7-oxo-[1,2,4]triazolo[1,5-a]pyrimidin-4(7H)-yl)acetamide], the IC50 in data set [1], in data set [3] and in data set [4] was 1 to 100 nM throughout.

What is called IC50 is the concentration that gives 50% inhibition. A word on the Papp A→B: it is the apparent permeability from the apical to the basolateral side of a cell layer. The term Papp B→A denotes how fast a substance crosses the layer from the basolateral side.
